# Measured values reported in ChEMBL document CHEMBL3393030, “Synthesis and properties of vitamin E analog-conjugated neomycin for delivery of RNAi drugs to liver cells” (Bioorg Med Chem Lett, 2015).
# Key:
# [1] = Binding affinity to self-complementary RNA-12mer duplex (5'-rCGCGAAUUCGCG-3')2 (unknown origin) assessed as melting temperature by […] assay (reference value: 61 degC); settings: Homo sapiens
# [2] = Drug uptake in mouse HePa1-6 cells assessed as red signal with Cy3 conjugate compound; type: ADME, cell-based
# RH7777 = test: Induction of RNAi activity in rat McA-RH7777 cells by LDLR assay; type: cell-based
Tm [1] [°C],Drug uptake [2],SMILES,Activity (RH7777)
64.2,,NC[C@@H]1O[C@H](O[C@H]2[C@@H](O)[C@H](O[C@@H]3[C@@H](O)[C@H](N)C[C@H](N)[C@H]3O[C@H]3O[C@H](CN)[C@@H](O)[C@H](O)[C@H]3N)O[C@@H]2CO)[C@H](N)[C@@H](O)[C@@H]1O,
72.8,Active,CCCCCCCCCCCCCCCCOC(COC[C@]1(C)CCc2c(C)c(O)c(C)c(C)c2O1)OCc1cn(CCCCCCCCCCCCCCCCSC[C@H]2O[C@@H](O[C@@H]3[C@@H](O)[C@H](N)C[C@H](N)[C@H]3O[C@H]3O[C@H](CN)[C@@H](O)[C@H](O)[C@H]3N)[C@H](O)[C@@H]2O[C@H]2O[C@@H](CN)[C@@H](O)[C@H](O)[C@H]2N)nn1 (stereo partly drawn),Toxic
66.8,Active,CCCCCCCC/C=C/CCCCCCCC(=O)Oc1c(C)c(C)c2c(c1C)CC[C@@](C)(CCCCCCCCCOCc1cn(CCCCCCCCCCCCCCCCSC[C@H]3O[C@@H](O[C@@H]4[C@@H](O)[C@H](N)C[C@H](N)[C@H]4O[C@H]4O[C@H](CN)[C@@H](O)[C@H](O)[C@H]4N)[C@H](O)[C@@H]3O[C@H]3O[C@@H](CN)[C@@H](O)[C@H](O)[C@H]3N)nn1)O2,Toxic
65.6,,CCCCCCCCCCCCCCCCCC(=O)Oc1c(C)c(C)c2c(c1C)CC[C@@](C)(CCCCCCCCCOCc1cn(CCCCCCCCCCCCCCCCSC[C@H]3O[C@@H](O[C@@H]4[C@@H](O)[C@H](N)C[C@H](N)[C@H]4O[C@H]4O[C@H](CN)[C@@H](O)[C@H](O)[C@H]4N)[C@H](O)[C@@H]3O[C@H]3O[C@@H](CN)[C@@H](O)[C@H](O)[C@H]3N)nn1)O2,
